Source: patent publication US12059422B2 (MEI Pharma, Inc., priority 2011, dated 2024)

What was measured:
PI3K delta = biological target: T1, PI3K delta (Homo sapiens, UniProt O00329); test: Luciferase-based luminescence assay (KinaseGlo), PI3K delta enzymatic activity; format: biochemical; settings: for IC50: inhibition of enzymatic activity, KinaseGlo, 25 μM ATP, read-out: IC50 p110δ; for α/δ ratio: ratio of enzymatic IC50 against PI3Kα over IC50 against PI3Kδ; for β/δ ratio / γ/δ ratio: ratio of enzymatic IC50 values, Table 1
T1 construct: purchased Millipore, Billerica, MA, USA
In short: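 KinaseGlo luminescence measured ATP remaining after PIP2 (50 μM) phosphorylation with 25 μM ATP in HEPES pH 7.5 buffer with CHAPS and DTT. Final enzyme was 1.65 nM alpha (1 h reaction) or 6.86 nM delta (2 h reaction). IC50 was curve-fitted from 10 concentrations.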

PI3Kα = PI3Kα (Homo sapiens, UniProt P42336); test: ELISA assay for PI3Kα: in-cell ELISA, phosphorylation of AKT (Thr308) in MDA-MB-453 cells; format: cell-based; settings: cellular, pAKT (Thr308), IGF-1 stimulation, read-out: IC50 p110α
Experimental: PI3K alpha (PI3Kα) activity was determined by measuring the phosphorylation of AKT (Thr308) using an in-cell ELISA assay. MDA-MB-453 (breast carcinoma) cells were obtained from ATCC (ATCC #HTB-131). Growth medium was DMEM (CellGro #CV-10-013-CV) supplemented with 10% fetal bovine serum, 100 IU/mL penicillin, 100 μg/mL streptomycin, and 1×MEM non-essential amino acids. Phosphate buffered saline (PBS) contained 2.7 M NaCl, 54 mM KCl, 86 mM […] (dibasic, anhydrous), and 28 mM […] (monobasic, anhydrous) at pH 7.2. Stimulation mixture (10×) was 1000 ng/mL LONG® R^3 human IGF-1 (Sigma #I1271) diluted in serum-free DMEM medium (CellGro #CV-10-013-CV). Compounds for testing were dissolved and serially diluted in 100% DMSO (total of 10 concentrations), then diluted in serum-free DMEM to 2× final assay concentration. Fixative solution (2×) was 8% formaldehyde (Amresco #M134) diluted in PBS. Permeabilization solution was PBS supplemented with 0.1% Triton X-100. Blocking buffer was obtained from LiCor (LiCor #927-40000). Wash buffer was PBS supplemented with 0.1% Tween-20. Primary antibody solution was rabbit anti-pAKT^T308 monoclonal antibody (Cell Signaling #2965) and mouse anti-total S6 (Santa Cruz #74459) diluted 1:500 and 1:2000, respectively, in the blocking buffer. Secondary antibody solution was IRDye 800CW-conjugated goat anti-rabbit IgG (LiCor #926-32211) and IRDye 680LT-conjugated goat anti-mouse IgG (LiCor #926-68020) diluted 1:1000 and 1:2000, respectively, in the blocking buffer.
MDA-MB-453 cells were subcultured in growth medium and seeded into flat, clear bottom, 96-well plates (Corning #3904) at 40000 cells/well, then incubated overnight in a 5% CO2 incubator at 37° C. Growth medium in plates was replaced with 100 μL/well serum-free DMEM and incubated overnight at 37° C. in a 5% CO2 incubator. Fresh serum-free DMEM (50 μL/well) was added to plates. Compound treatment was performed by adding 50 μL/well of 2× compound mixture to plates and incubating for 1 hr at 37° C. and 5% CO2, after which 11 μL/well of 10× stimulation mixture was added and plates were incubated for 10 min at 37° C. and 5% CO2. Fixation was performed by adding 110 μL/well of 2× fixative solution to the plates and incubating for 20 min at room temperature. Permeabilization was performed by replacing fixation solution with 150 μL/well permeabilization solution and incubating for 10 min at room temperature. Permeabilization was repeated (for a total of 2 times). Permeabilization solution was replaced with 100 μL/well blocking buffer and plates were incubated for 1 hour at room temperature, after which 100 μL/well of primary antibody solution was added and plates were incubated overnight at 4° C. Plates were washed with wash buffer, after which 100 μL/well of secondary antibody solution was added to the plates and incubated in the dark for 1 hr at room temperature. Plates were washed with wash buffer, followed by a wash with PBS. After completely removing PBS, plates were scanned on the Licor Odyssey Imager. Images were quantified using Licor Odyssey application software. IC50 values were determined by curve fitting using a Collaborative Drug Discovery database (www.collaborativedrug.com).

Sequence of PI3Kα (P27986 2-724): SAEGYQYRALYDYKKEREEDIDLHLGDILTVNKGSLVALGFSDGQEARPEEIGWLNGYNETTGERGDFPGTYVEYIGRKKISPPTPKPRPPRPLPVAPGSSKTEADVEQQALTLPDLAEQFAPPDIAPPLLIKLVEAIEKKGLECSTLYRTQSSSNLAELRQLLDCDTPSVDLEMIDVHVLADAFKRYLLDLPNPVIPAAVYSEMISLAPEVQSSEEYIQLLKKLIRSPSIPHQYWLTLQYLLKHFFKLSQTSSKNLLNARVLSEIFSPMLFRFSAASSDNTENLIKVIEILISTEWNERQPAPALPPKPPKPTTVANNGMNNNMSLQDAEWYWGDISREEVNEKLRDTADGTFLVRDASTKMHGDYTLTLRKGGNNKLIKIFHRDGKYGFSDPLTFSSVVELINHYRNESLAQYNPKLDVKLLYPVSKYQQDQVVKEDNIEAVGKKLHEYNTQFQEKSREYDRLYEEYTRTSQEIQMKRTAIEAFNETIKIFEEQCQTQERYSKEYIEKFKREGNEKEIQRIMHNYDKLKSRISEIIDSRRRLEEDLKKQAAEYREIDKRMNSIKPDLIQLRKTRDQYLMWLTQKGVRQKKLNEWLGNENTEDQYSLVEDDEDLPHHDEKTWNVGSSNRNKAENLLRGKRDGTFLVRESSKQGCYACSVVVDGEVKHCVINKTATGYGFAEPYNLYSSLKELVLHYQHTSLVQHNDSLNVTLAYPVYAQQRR
Sequence of PI3Kα (P42336 whole entry): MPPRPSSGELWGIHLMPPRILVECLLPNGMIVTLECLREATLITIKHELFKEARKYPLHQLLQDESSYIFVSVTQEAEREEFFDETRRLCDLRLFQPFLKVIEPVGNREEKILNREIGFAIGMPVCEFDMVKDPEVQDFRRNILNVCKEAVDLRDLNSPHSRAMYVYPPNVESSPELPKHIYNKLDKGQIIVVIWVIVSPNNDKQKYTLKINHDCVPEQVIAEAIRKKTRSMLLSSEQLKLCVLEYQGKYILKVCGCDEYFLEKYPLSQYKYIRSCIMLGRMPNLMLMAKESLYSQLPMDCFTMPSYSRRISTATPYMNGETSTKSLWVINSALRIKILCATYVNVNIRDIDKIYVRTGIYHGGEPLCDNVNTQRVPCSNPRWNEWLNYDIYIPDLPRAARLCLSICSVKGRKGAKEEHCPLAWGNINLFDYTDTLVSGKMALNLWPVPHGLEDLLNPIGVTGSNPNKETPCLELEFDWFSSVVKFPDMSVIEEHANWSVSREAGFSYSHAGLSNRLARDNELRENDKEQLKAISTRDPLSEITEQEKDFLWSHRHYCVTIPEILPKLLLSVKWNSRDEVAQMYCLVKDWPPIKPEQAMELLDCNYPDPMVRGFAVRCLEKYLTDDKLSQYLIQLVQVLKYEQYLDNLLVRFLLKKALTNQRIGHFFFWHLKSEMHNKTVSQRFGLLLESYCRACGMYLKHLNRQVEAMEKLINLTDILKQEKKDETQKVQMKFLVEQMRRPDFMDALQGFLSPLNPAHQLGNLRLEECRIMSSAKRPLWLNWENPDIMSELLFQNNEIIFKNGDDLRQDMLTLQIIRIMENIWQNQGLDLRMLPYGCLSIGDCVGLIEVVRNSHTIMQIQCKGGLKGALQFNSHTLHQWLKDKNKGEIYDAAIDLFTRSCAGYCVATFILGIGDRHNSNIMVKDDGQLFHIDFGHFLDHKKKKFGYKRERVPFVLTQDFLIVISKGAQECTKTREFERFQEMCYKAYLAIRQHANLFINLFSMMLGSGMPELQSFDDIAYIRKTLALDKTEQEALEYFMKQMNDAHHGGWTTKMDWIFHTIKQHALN
T1 sequence (O00329 whole entry, species assumed): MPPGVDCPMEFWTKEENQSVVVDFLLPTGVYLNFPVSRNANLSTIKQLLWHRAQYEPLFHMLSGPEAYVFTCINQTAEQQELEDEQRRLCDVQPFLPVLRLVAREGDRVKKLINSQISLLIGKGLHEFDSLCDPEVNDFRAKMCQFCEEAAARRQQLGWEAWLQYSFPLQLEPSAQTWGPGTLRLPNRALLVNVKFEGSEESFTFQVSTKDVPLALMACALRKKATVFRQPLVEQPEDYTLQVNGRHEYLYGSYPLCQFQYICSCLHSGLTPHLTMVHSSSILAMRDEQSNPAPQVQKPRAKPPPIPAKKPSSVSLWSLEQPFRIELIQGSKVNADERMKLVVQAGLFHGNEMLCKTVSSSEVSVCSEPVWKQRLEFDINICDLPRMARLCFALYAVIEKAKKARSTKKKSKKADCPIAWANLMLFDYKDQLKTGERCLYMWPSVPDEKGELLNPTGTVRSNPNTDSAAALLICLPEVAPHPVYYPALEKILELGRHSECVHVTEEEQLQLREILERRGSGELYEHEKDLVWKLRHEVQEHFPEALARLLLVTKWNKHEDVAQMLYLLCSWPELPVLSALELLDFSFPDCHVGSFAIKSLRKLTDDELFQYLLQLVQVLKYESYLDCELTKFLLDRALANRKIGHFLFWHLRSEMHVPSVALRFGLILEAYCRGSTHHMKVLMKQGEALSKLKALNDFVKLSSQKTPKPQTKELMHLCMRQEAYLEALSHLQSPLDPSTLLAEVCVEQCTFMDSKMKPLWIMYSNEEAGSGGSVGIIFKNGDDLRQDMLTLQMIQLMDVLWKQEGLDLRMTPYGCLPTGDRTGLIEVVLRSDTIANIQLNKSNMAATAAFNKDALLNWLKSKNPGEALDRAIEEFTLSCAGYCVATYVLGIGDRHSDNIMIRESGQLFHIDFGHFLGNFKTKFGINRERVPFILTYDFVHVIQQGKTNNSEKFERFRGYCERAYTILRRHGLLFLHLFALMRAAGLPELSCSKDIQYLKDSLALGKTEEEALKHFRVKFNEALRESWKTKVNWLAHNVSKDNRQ
T1 sequence (P27986 whole entry partner, species assumed): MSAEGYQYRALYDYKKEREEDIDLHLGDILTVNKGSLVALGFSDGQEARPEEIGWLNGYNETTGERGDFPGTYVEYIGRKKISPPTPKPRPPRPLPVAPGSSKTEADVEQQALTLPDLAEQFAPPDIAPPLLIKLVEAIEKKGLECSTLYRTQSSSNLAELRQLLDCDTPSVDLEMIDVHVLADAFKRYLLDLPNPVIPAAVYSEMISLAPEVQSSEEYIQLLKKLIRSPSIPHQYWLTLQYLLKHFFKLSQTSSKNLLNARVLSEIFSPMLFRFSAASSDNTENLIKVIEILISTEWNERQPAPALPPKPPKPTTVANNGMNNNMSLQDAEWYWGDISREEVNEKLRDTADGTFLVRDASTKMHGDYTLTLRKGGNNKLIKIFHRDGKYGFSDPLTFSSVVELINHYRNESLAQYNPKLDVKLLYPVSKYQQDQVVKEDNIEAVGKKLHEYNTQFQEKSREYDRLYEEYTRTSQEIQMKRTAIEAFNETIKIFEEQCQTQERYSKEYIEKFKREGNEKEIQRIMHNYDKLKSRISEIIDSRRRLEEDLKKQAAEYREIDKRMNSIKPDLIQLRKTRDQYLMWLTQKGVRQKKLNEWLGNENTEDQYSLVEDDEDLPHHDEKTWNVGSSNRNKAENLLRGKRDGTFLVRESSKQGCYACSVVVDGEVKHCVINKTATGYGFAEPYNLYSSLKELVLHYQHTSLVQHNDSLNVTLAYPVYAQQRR

Question: With `Cc1cc(-c2ccccc2CC(C)(C)Nc2nc(N3CCOCC3)nc(-n3c(C(F)F)nc4ccccc43)n2)ccn1` [Compound A43, 4-(2-(difluoromethyl)-1H-benzo[d]imidazol-1-yl)-N-(2-methyl-1-(2-(2-methylpyridin-4-yl)phenyl)propan-2-yl)-6-morpholino-1,3,5-triazin-2-amine] as the compound, how does the IC50 (PI3K delta) read?
Answer: The IC50 was no more than 0.1 µM.

Question: And the α/δ ratio (PI3K delta)?
Answer: The α/δ ratio was “A’”.

Question: And the β/δ ratio (PI3K delta)?
Answer: Its β/δ ratio is “D’”.

Question: And the γ/δ ratio (PI3K delta)?
Answer: Its γ/δ ratio is “A’”.

Question: What about the IC50 (PI3Kα) of the same compound?
Answer: Its IC50 is greater than 0.5 µM.

Question: What does the source list for `CC(C)(Cc1ccccc1-c1cn[nH]c1)Nc1nc(N2CCOCC2)nc(-n2c(C(F)F)nc3ccccc32)n1` [Compound A44, 4-(2-(difluoromethyl)-1H-benzo[d]imidazol-1-yl)-N-(1-(2-(1H-pyrazol-4-yl)phenyl)-2-methylpropan-2-yl)-6-morpholino-1,3,5-triazin-2-amine]?
Answer: IC50 (PI3K delta): ≤ 0.1 µM; α/δ ratio (PI3K delta): A’; β/δ ratio (PI3K delta): D’; γ/δ ratio (PI3K delta): A’; IC50 (PI3Kα): > 0.5 µM

Question: Which IC50 (PI3K delta) does the source give for `Cn1cc(-c2ccccc2CC(C)(C)Nc2nc(N3CCOCC3)nc(-n3c(C(F)F)nc4ccccc43)n2)cn1` [Compound A45, 4-(2-(difluoromethyl)-1H-benzo[d]imidazol-1-yl)-N-(2-methyl-1-(2-(1-methyl-1H-pyrazol-4-yl)phenyl)propan-2-yl)-6-morpholino-1,3,5-triazin-2-amine] here?
Answer: Its IC50 is no more than 0.1 µM.

Question: And the α/δ ratio (PI3K delta)?
Answer: The α/δ ratio was “A’”.

Question: What about the β/δ ratio (PI3K delta) of the same compound?
Answer: Its β/δ ratio is “D’”.

Question: And the γ/δ ratio (PI3K delta)?
Answer: Its γ/δ ratio is “A’”.

Question: And the IC50 (PI3Kα)?
Answer: Its IC50 is 0.2 to 0.5 µM.

Question: Which results are given for `Cn1nccc1-c1ccccc1CC(C)(C)Nc1nc(N2CCOCC2)nc(-n2c(C(F)F)nc3ccccc32)n1` [Compound A46, 4-(2-(difluoromethyl)-1H-benzo[d]imidazol-1-yl)-N-(2-methyl-1-(2-(1-methyl-1H-pyrazol-5-yl)phenyl)propan-2-yl)-6-morpholino-1,3,5-triazin-2-amine]?
Answer: IC50 (PI3K delta): ≤ 0.1 µM; α/δ ratio (PI3K delta): A’; β/δ ratio (PI3K delta): D’; γ/δ ratio (PI3K delta): A’; IC50 (PI3Kα): > 0.5 µM

Question: For `Cc1cccc(CC(C)(C)Nc2nc(N3CCOCC3)nc(-n3c(C(F)F)nc4ccccc43)n2)c1` [Compound A49, 4-(2-(difluoromethyl)-1H-benzo[d]imidazol-1-yl)-N-(2-methyl-1-m-tolylpropan-2-yl)-6-morpholino-1,3,5-triazin-2-amine], which IC50 (PI3K delta) is on record?
Answer: Its IC50 is no more than 0.1 µM.

Question: What about the α/δ ratio (PI3K delta) of the same compound?
Answer: Its α/δ ratio is “A’”.

Question: And the β/δ ratio (PI3K delta)?
Answer: Its β/δ ratio is “D’”.

Question: What about the γ/δ ratio (PI3K delta) of the same compound?
Answer: The γ/δ ratio was “C’”.

Question: What about the IC50 (PI3Kα) of the same compound?
Answer: The IC50 was greater than 0.5 µM.

Question: How did the IC50 (PI3K delta) turn out when `COc1cc(CC(C)(C)Nc2nc(N3CCOCC3)nc(-n3c(C(F)F)nc4ccccc43)n2)ccc1F` [Compound A50, 4-(2-(difluoromethyl)-1H-benzo[d]imidazol-1-yl)-N-(1-(4-fluoro-3-methoxyphenyl)-2-methylpropan-2-yl)-6-morpholino-1,3,5-triazin-2-amine] was run?
Answer: The IC50 was no more than 0.1 µM.

Question: What about the α/δ ratio (PI3K delta) of the same compound?
Answer: Its α/δ ratio is “A’”.

Question: And the β/δ ratio (PI3K delta)?
Answer: The β/δ ratio was “C’”.

Question: What about the γ/δ ratio (PI3K delta) of the same compound?
Answer: Its γ/δ ratio is “A’”.

Question: What about the IC50 (PI3Kα) of the same compound?
Answer: The IC50 was greater than 0.5 µM.

Question: Which IC50 (PI3K delta) does the source give for `CC(C)(Cc1ccc(F)cc1F)Nc1nc(N2CCOCC2)nc(-n2c(C(F)F)nc3ccccc32)n1` [Compound A51, 4-(2-(difluoromethyl)-1H-benzo[d]imidazol-1-yl)-N-(1-(2,4-difluorophenyl)-2-methylpropan-2-yl)-6-morpholino-1,3,5-triazin-2-amine] here?
Answer: Its IC50 is no more than 0.1 µM.

Question: What about the α/δ ratio (PI3K delta) of the same compound?
Answer: Its α/δ ratio is “A’”.

Question: What about the β/δ ratio (PI3K delta) of the same compound?
Answer: The β/δ ratio was “B’”.

Question: What about the γ/δ ratio (PI3K delta) of the same compound?
Answer: The γ/δ ratio was “C’”.

Question: What about the IC50 (PI3Kα) of the same compound?
Answer: Its IC50 is greater than 0.5 µM.

Question: With `CC(C)(Cc1c(F)cccc1F)Nc1nc(N2CCOCC2)nc(-n2c(C(F)F)nc3ccccc32)n1` [Compound A52, 4-(2-(difluoromethyl)-1H-benzo[d]imidazol-1-yl)-N-(1-(2,6-difluorophenyl)-2-methylpropan-2-yl)-6-morpholino-1,3,5-triazin-2-amine] as the compound, how does the IC50 (PI3K delta) read?
Answer: Its IC50 is no more than 0.1 µM.

Question: And the α/δ ratio (PI3K delta)?
Answer: Its α/δ ratio is “C’”.

Question: And the β/δ ratio (PI3K delta)?
Answer: Its β/δ ratio is “B’”.

Question: And the γ/δ ratio (PI3K delta)?
Answer: The γ/δ ratio was “D’”.

Question: And the IC50 (PI3Kα)?
Answer: Its IC50 is greater than 0.5 µM.
